Drawing on DBAASP, this text covers MIC for six molecules.

Values after ≈ are worked out from the molar mass of the structure shown.

Among the test systems are Candida krusei CBS 573; Escherichia coli D31; Micrococcus luteus A270; Acinetobacter baumannii; Klebsiella pneumoniae; Pseudomonas aeruginosa.
Test in all cases: ≥ marks a high value that may be exact or a test limit, other limits are often not marked, values filed in µg/mL are converted to µM
The test system of experiment [1] is Candida albicans ATCC 10231.
Experiment [2] has as its system Candida parapsilosis CBS 604.
Experiment [3] concerns Saccharomyces cerevisiae SZMC 0644.
Experiment [4] deals with Acinetobacter baumannii ATCC 19606.
The subject of experiment [5] is Enterococcus faecalis ATCC 19433.
For experiment [6], the system named is Enterococcus faecalis ATCC BAA-2316.
In experiment [7] the test system is Enterococcus faecalis ATCC BAA-2365.
In experiment [8] the test system is Escherichia coli ATCC 25922.
Experiment [9] concerns Escherichia coli ATCC BAA-2452.
In experiment [10] the test system is Klebsiella pneumoniae ATCC 13883.
The subject of experiment [11] is Pseudomonas aeruginosa ATCC 27853.
The subject of experiment [12] is Pseudomonas aeruginosa ATCC BAA-2114.
Experiment [13] relates to Staphylococcus aureus ATCC 29213.
Experiment [14] concerns Staphylococcus aureus ATCC 33591.
Experiment [15] has as its system Staphylococcus aureus ATCC 43300.
Experiment [16] deals with Staphylococcus aureus ATCC BAA-41.
The test system of experiment [17] is Staphylococcus epidermidis ATCC 12228.
In experiment [18] the test system is Bacillus subtilis KCTC 3068.
The subject of experiment [19] is Enterococcus faecalis ATCC 51575.
The test system of experiment [20] is Enterococcus faecalis KCCM 29212.
In experiment [21] the test system is Enterococcus faecium ATCC 51559.
Experiment [22] deals with Enterococcus faecium KCCM 12118.
The subject of experiment [23] is Escherichia coli KCTC 1682.
For experiment [24], the system named is Pseudomonas aeruginosa KCTC 1637.
In experiment [25] the test system is Salmonella typhimurium KCTC 1926.
The subject of experiment [26] is Staphylococcus aureus KCCM 40510.
Experiment [27] relates to Staphylococcus aureus KCTC 1621.
The subject of experiment [28] is Staphylococcus epidermidis KCTC 1917.
For experiment [29], the system named is Staphylococcus aureus 5118.
The test system of experiment [30] is Staphylococcus aureus ATCC 9144.
Experiment [31] has as its system Staphylococcus aureus E4049.
The test system of experiment [32] is Escherichia coli DH5alpha.
Experiment [33] has as its system Salmonella enterica subsp. arizonae ATCC 13314.
Experiment [34] relates to Bacillus subtilis ATCC 6051.
Experiment [35] relates to Candida albicans ATCC 90028.
Experiment [36] has as its system Cryptococcus neoformans ATCC 208821.
Experiment [37] relates to Klebsiella pneumoniae ATCC 700603.
In experiment [38] the test system is Klebsiella pneumoniae ATCC BAA-2146.

With `CC[C@H](C)[C@H](NC(=O)[C@@H]1CSSC[C@H](NC(=O)[C@H](CCCCN)NC(=O)CN)C(=O)N[C@@H](CCC(=O)O)C(=O)N[C@@H](Cc2c[nH]c3ccccc23)C(=O)N[C@@H](CCC(N)=O)C(=O)NCC(=O)NCC(=O)N[C@@H](CCC(N)=O)C(=O)N[C@@H](CC(C)C)C(=O)N[C@@H](CC(N)=O)C(=O)N1)C(=O)N[C@@H](C)C(=O)N[C@H](C(=O)O)[C@@H](C)O` [GKCEWQGGQLNCIAT], the MIC – broadly, the least concentration at which growth counts as inhibited – in [1] is over 62.2 µM; against Candida krusei CBS 573, at least 62.2 µM; in experiment [2] it was at least 62.2 µM; in experiment [3] it was at least 62.2 µM.

Consider `CC[C@H](C)[C@H](NC(=O)[C@H](CCCN=C(N)N)NC(=O)[C@H](CCC(=O)O)NC(=O)[C@@H](NC(=O)[C@@H](NC(=O)[C@H](CCCN=C(N)N)NC(=O)[C@H](CCCCN)NC(=O)[C@H](Cc1ccccc1)NC(=O)[C@H](CCC(=O)O)NC(=O)[C@H](CCCCN)NC(=O)CNC(=O)[C@@H](NC(=O)[C@@H](NC(=O)[C@@H]1CCCN1C(=O)[C@H](CO)NC(=O)[C@H](CC(C)C)NC(=O)[C@H](CCCCN)NC(=O)[C@H](CCCCN)NC(=O)[C@H](Cc1ccccc1)NC(=O)[C@H](CC(C)C)NC(=O)[C@H](CCCCN)NC(=O)[C@H](CCCCN)NC(=O)[C@H](Cc1ccccc1)NC(=O)[C@@H](N)CCCCN)C(C)C)[C@@H](C)CC)[C@@H](C)CC)C(C)C)C(=O)N[C@@H](CCCCN)C(=O)N[C@@H](CCCN=C(N)N)C(=O)N[C@@H](Cc1ccccc1)C(=O)N[C@@H](CC(C)C)C(=O)N[C@@H](CCCN=C(N)N)C(=O)O` [KFKKLFKKLSPVIGKEFKRIVERIKRFLR], for which the MIC was found to be 10 µM (≈ 36.3 µg/mL) in experiment [4]; 15 µM (≈ 54.5 µg/mL) in experiment [5]; 5 µM (≈ 18.2 µg/mL) in experiment [6]; 5 µM (≈ 18.2 µg/mL) in [7]; 10 µM (≈ 36.3 µg/mL) in experiment [8]; 10 µM (≈ 36.3 µg/mL) in [9]. For the same molecule, the MIC turned out to be 2.5 µM (≈ 9.08 µg/mL) in experiment [10]; 20 µM (≈ 72.7 µg/mL) in experiment [11]; 25 µM (≈ 90.8 µg/mL) in experiment [12]; 20 µM (≈ 72.7 µg/mL) in experiment [13]; 10 µM (≈ 36.3 µg/mL) in experiment [14]; 10 µM (≈ 36.3 µg/mL) in [15]. For the same molecule, the MIC in experiment [16] and in [17] was 10 µM (≈ 36.3 µg/mL) each time.

Turning to `CC[C@H](C)[C@H](NC(=O)[C@H](CCCN=C(N)N)NC(=O)[C@H](CC(C)C)NC(=O)[C@@H](N)CC(C)C)C(=O)N[C@@H](C)C(=O)N[C@@H](CC(C)C)C(=O)N[C@@H](CCCN=C(N)N)C(=O)N[C@@H](CCCCN)C(=O)N[C@@H](CCCCN)C(N)=O` [LLRIALRKK], the MIC in [18] is 14.4 µM (≈ 16 µg/mL); in experiment [19], at least 57.6 µM; in experiment [20], 28.8 µM (≈ 32 µg/mL); in [21], 7.2 µM (≈ 7.99 µg/mL); in experiment [22] it was 28.8 µM (≈ 32 µg/mL); in [23], 3.6 µM (≈ 4 µg/mL). Besides, the MIC amounted to 7.2 µM (≈ 7.99 µg/mL) in experiment [24]; 7.2 µM (≈ 7.99 µg/mL) in [25]; 14.4 µM (≈ 16 µg/mL) in [26]; 28.8 µM (≈ 32 µg/mL) in experiment [27]; 3.6 µM (≈ 4 µg/mL) in [28].

As for `CC[C@H](C)[C@H](NC(=O)[C@H](CC(C)C)NC(=O)CNC(=O)[C@H](CCSC)NC(=O)[C@@H](NC(=O)[C@H](CC(C)C)NC(=O)[C@H](CCC(N)=O)NC(=O)CNC(=O)[C@H](Cc1ccccc1)NC(=O)[C@@H](NC(=O)[C@@H](N)CO)C(C)C)C(C)C)C(=O)N[C@@H](CC(C)C)C(=O)N[C@@H](CO)C(=O)N[C@@H](CO)C(=O)N[C@H](C(=O)N[C@@H](Cc1ccccc1)C(=O)N[C@@H](Cc1ccc(O)cc1)C(=O)N[C@@H](CC(N)=O)C(=O)N[C@@H](CC(=O)O)C(=O)N[C@@H](CC(=O)O)C(=O)O)C(C)C` [SVFGQLVMGLILSSVFYNDD], the minimum inhibitory concentration (MIC) in [29] was 1.81 µM (≈ 4 µg/mL); in experiment [30], 15.9 µM (≈ 35 µg/mL); in experiment [31] it was at least 250 µM.

With `CC[C@H](C)[C@H](NC(=O)[C@H](CCC(N)=O)NC(=O)[C@@H](NC(=O)CNC(=O)[C@@H](NC(=O)[C@H](CC(C)C)NC(=O)[C@H](CC(C)C)NC(=O)[C@H](Cc1ccccc1)NC(=O)[C@@H]1CCCN1C(=O)[C@@H](N)[C@@H](C)O)C(C)C)[C@@H](C)O)C(=O)N[C@@H](CC(=O)O)C(=O)N[C@@H](CC(C)C)C(=O)N[C@@H](CCCN=C(N)N)C(=O)O` [TPFLLVGTQIDLR], the minimum inhibitory concentration (MIC) against Escherichia coli D31 turned out to be 2.4 µM (≈ 3.53 µg/mL); in experiment [32], 2.4 µM (≈ 3.53 µg/mL); with Micrococcus luteus A270, 4.7 µM (≈ 6.92 µg/mL); in experiment [11], 4.7 µM (≈ 6.92 µg/mL); in experiment [33], 2.4 µM (≈ 3.53 µg/mL); in experiment [13] it was 1.2 µM (≈ 1.77 µg/mL). Also, the MIC in [17] is 1.2 µM (≈ 1.77 µg/mL).

For the molecule `CC[C@H](C)[C@@H]1NC(=O)CNC(=O)[C@H](CCCN=C(N)N)NC(=O)[C@H](Cc2ccc(O)cc2)NC(=O)[C@@H](NC(=O)[C@@H](NC(=O)[C@H](CCCN=C(N)N)NC(=O)[C@H](Cc2ccccc2)NC(=O)[C@H](C)NC(=O)[C@H](Cc2c[nH]c3ccccc23)NC(=O)[C@@H](N)CCCCN)C(C)C)CSSC[C@@H](C(=O)N[C@@H](Cc2ccc(O)cc2)C(=O)N[C@@H](CCCN=C(N)N)C(=O)N[C@@H](CCCN=C(N)N)C(=O)N[C@@H](CO)C(=O)N[C@@H](CCCN=C(N)N)C(=O)O)NC1=O` [KWAFRVCYRGICYRRSR], the MIC was over 7.21 µM in [4]; 7.21 µM (≈ 16 µg/mL) against Acinetobacter baumannii; 0.225 µM (≈ 0.5 µg/mL) in [34]; 7.21 µM (≈ 16 µg/mL) in [35]; 1.8 µM (≈ 4 µg/mL) in [36]; 1.8 µM (≈ 4 µg/mL) in experiment [8]. The MIC in [10] is 7.21 µM (≈ 16 µg/mL); in experiment [37], 7.21 µM (≈ 16 µg/mL); in experiment [38] it was 7.21 µM (≈ 16 µg/mL); against Klebsiella pneumoniae, over 7.21 µM; in experiment [11], over 7.21 µM; against Pseudomonas aeruginosa it was over 7.21 µM. Moreover, the minimal inhibitory concentration (MIC) in experiment [15] is over 7.21 µM.
